{"source": "patent US20070081991A1", "about": "“Compositions and methods for modulation of immune responses” (Pepgen Corporation, priority 2001, published 2007)", "assay_type_in_all_cases": "cell-based, human", "key": {"[1]": {"test_system": "NKL and Nishi effector cells", "assay": "Killing of K562-E*01033 cells grown at increasing cell density (stress), 2 h 51Cr release", "settings": "peptide added in the assay; 100 mM B7sp (FIG. 6b legend)", "experimental": "(a) Killing of K562-E*01033 cells (grown at increasing cell densities as in FIG. 3b) by NKL in a 2 h 51Cr release assay. (b) Same experimental setting as above, in the presence of 100 mM B7sp. Closed circles-high density; open squares-medium density; closed triangles-low density. (c) HLA-E expression on the K562-E*01033 cells after culture at increasing cell density.\nBriefly, cell cultures were set up at the cell concentration of 0.2.10^6 cells/ml at different time points for a period of up to 6 days. At the end point, cell concentration and viability were determined by trypan blue exclusion. The expression of cell-surface HLA class I molecules was assessed by flow cytometry. Cell cultures with viability higher than 90% and at three different densities were selected as targets for cytotoxic assays. HLA-E Tetramer Production\nK562-E*01033 cells grown at different densities were tested as targets in a 2 hours chromium release assay with NKL and Nishi as effector cells. […] The data also subbest that HLA-E expression induced by stress is not sufficient to protect from NK cell mediated killing. […] Therefore it is unlikely that the increased killing after cellular stress observed in some of the experiments herein is due to an increased expression of MIC-A or MIC-B. Up-regulation of other activating ligands, e.g., ULBP's, may also be responsible for the increase in killing."}, "HLA-E": {"test_system": "HLA-E", "assay": "HLA-E stabilization assay (cell surface expression by flow cytometry)", "settings": "K562 cells transfected with HLA-E*01033 or HLA-E*0101; overnight incubation with peptide at 26° C.", "experimental": "Synthetic peptides, purchased from Research Genetics, were dissolved in PBS. The peptides used were B7sp ([…]) (SEC ID NO: 3), hsp60sp ([…]) (SEC ID NO: 2), B7 R5V ([…]) (SEC ID NO: 14), hsp60 V5R ([…]) ([…]), and P18I10 ([…]) (SEC ID NO: 113) (all from Research Genetics, Huntsville, Ala.). Cells and their HLA-E transfected derivatives were incubated with synthetic peptides (3-300 μM) at 26° C. for 15-20 hours in serum-free AIM-V medium (GibcoBRL, Paisley Scotland) at a concentration of 1-3.10^6 cells/ml. Cells were then harvested, washed in PBS, stained with mAbs and analyzed by flow cytometry. Cells were subjected to stress by allowing them to grow at increasing cell density.\nTo test whether the hsp60-derived peptides were able to bind HLA-E, stabilized HLA-E cell surface expression was stabilized with the different synthetic peptides, by overnight incubation at 26° C. For this purpose MHC class I-deficient cell lines such as 721.221 (which lack HLA-A, -B, -C, and -G, but express HLA-E and -F intracellularly), as well as K562 cells transfected with HLA-E*01033 (K562-E*01033) or HLA-E*0101 were employed. The 721.221 cells and HLA-E transfected, but not untransfected, K562 cells express low levels of HLA-E at the cell surface during normal cell growth."}, "[2]": {"test_system": "CD94/NKG2A+ NK cell lines Nishi and NKL", "assay": "NK cell-mediated cytotoxicity, 2 h 51Cr release, peptide-loaded K562-E*01033 targets", "settings": "targets incubated overnight at 26° C. with peptide; effectors NKL and Nishi", "experimental": "K562-E*01033 cells were incubated with the different peptides at 26° C. for 15-20 hours, and then tested in 2 h 51Cr release assays. In order to ensure that the levels of HLA-E with a protective peptide, and not the HLA-E levels as such, provided the protective capacity we kept the non-protective peptides, but omitted the B7sp, during the assays. (a) Killing of K562-E*01033 cells by NKL (left) or Nishi (right) after incubation with […], 300 mM hsp60sp, or 30 mM B7sp. 50 mM of P18I10 control peptide and hsp60sp was also included during the assays. Data from an E:T ratio of 30:1 is shown. The figure represents the mean of at least three experiments. Error bars indicate standard error of the mean. (b) Killing of K562-E*01033 cells by NKL (left panel) or Nishi (right panel) incubated over night with 30 mM 7sp, 300 mM P18I10 (pCtrl), 300 mM B7 R5V, 300 mM hsp60sp, or 300 mM hsp60 V5R. 50 mM of all peptides, except B7sp, were included during the assay. Peptide concentrations were chosen according to FIG. 5c. The figure represents the mean of at least three experiments. Error bars indicate standard error of the mean. (c) HLA-E cell surface expression by K562-E*01033 after the assay. A cold target preparation was prepared in parallel as in (a) and (b), and then stained with DX17 mAb (anti-HLA class I), followed by RPE-conjugated goat-anti-mouse IgG. One representative example out of more than 5 is shown. Note that, as in (a) and (b), 50 mM of all peptides, except for B7sp, was present during the time of the assay, explaining the lower HLA-E expression with B7sp compared to Hsp60sp, Hsp60 V5R and B7 R5V. (d) Killing of K562-E*01033 cells by Nishi after incubation for 30 min at room temperature with 0.1 mM B7sp and increasing amounts of competing peptides (hsp60sp, hsp60.4, B7 R5V and P18I10). All the peptides were kept throughout the assay\nNK cell-mediated cytotoxicity was measured using a 2 hours standard ^51Cr radioisotope release assay. Briefly, target cells were incubated for 15-20 hours at 26° C. with the various peptides at concentrations ranging from 1-300 μM, and then labeled with ^51Cr. Peptides were washed away prior to setting up the assays, except in some experiments where the non-protective hsp60sp, B7 R5V and hsp60 V5R was kept throughout the assay to assure higher levels of HLA-E expression, as compared to targets incubated with the protective B7sp. In mAb blocking experiments, cells were preincubated with mouse serum, or an irrelevant isotype matched antibody to block Fc-receptors. Blocking of either target or effector cells with mAbs was performed at 4° C., and the antibodies were also included during the assays. […]"}, "[3]": {"test_system": "NK cells of PB and SF mononuclear cells of RA patients", "assay": "NK cell cytokine production on contact with peptide stabilized K562 HLA-E*01033 cells (intracellular staining, flow cytometry)", "settings": "K562 HLA-E*01033 stabilized with various doses of peptide; 1:1 cell ratio, 4 hours", "experimental": "HLA-E expression was stabilized on K562 cells transfected with HLA-E*01033, by incubation with various doses of HLA-B7 signal sequence derived peptide ([…]) (SEQ ID NO: 3). PB and SF mononuclear cells (MC) of RA patients were then incubated with peptide stabilized K562 cells (1:1 cell ratio) for 4 hours in the presence of GolgiStop™. Cells were surface stained for CD3 and CD56 and thereafter stained intracellularly for IFN-gamma or TNF-alpha. Analysis was performed by flow cytometry."}}, "note": "Entries after “also recorded” stand apart in the source; their conditions may differ."}
{"sequence": "VMAPRTVLL [B7sp]", "values": [{"measurement": "rescue of stressed (high density) K562-E*01033 cells from killing", "setting": "[1]", "value": "could be rescued from killing by addition of B7sp peptide; also recorded: stressed cells were protected simply by adding the protective B7sp peptide"}, {"measurement": "HLA-E cell surface expression (stabilization)", "setting": "HLA-E", "value": "stabilization of HLA-E"}, {"measurement": "protection of K562-E*01033 cells from killing by NK cells", "setting": "[2]", "value": "clear protection from killing"}, {"measurement": "NK cell IFN-gamma production", "setting": "[3]", "value": "sufficient to inhibit NK cell IFN-gamma and TNF-alpha cytokine production"}, {"measurement": "NK cell TNF-alpha production", "setting": "[3]", "value": "sufficient to inhibit NK cell IFN-gamma and TNF-alpha cytokine production"}]}
